Data taken from paper PMC8945229, “Development and Biological Characterization of a Novel Selective TrkA Agonist with Neuroprotective Properties against Amyloid Toxicity” (Biomedicines, 2022).

How the values were obtained:
[1] = test system: Primary hippocampal neurons; test: TUNEL assay in primary hippocampal neurons treated with oligomeric Aβ; type: cell-based, mouse; details: 5 μM oligomeric Aβ, 500 nM every 24 h, 48 h
Experimental: Primary hippocampal neurons were isolated from E17.5 mouse embryos (C57BL/6J, The Jackson Laboratory, Bar Harbor, ME, USA) as previously described and cultured with Neurobasal medium containing 2% B27, 1X GlutaMax, 10 mM HEPES and 1% PenStrep. Cells were maintained in a humified incubator at 37 °C and 5% CO2. For TUNEL assay, cells were left in culture for 16–18 days and then treated with 5 μM oligomeric Aβ along with ENT-A013 (500 nM, every 24 h) for 48 h. Cells were then fixed with 4% PFA and labelled with TUNEL (F. Hoffmann–La Roche Ltd., Basel, Switzerland, cat# 11684795910) following the manufacturer’s protocol. Subsequently, cells were immunostained against Tuj1 and imaged with confocal microscopy. For synaptic plasticity assay, cells were left in culture for 16–18 days and then treated with 5 μM oligomeric Aβ along with ENT-A013 (500 nM) for 4 h. Cells were then fixed with 4% PFA and immunostained against Tuj1 and Synaptophysin (1:1000, PA1-1043, Invitrogen, Waltham, MA, USA), anti-mouse Alexa fluor 488 (1:1000, A-11029, Invitrogen, Waltham, MA, USA) and anti-rabbit Alexa fluor 546 (1:1000, A10040, Invitrogen, Waltham, MA, USA). Images were acquired using confocal microscopy and the total area of synaptophysin positive puncta was measured and normalized to Tuj1 total area. […]

TrkC = molecular target: T1, TrkC (Homo sapiens, UniProt Q16288); test: TrkC phosphorylation in NIH-3T3 cells stably transfected with TrkC; type: cell-based; details: 500 nM, 30′
T1 construct: expressed in transfected cells
Experimental: For immunoprecipitation experiments PC12 or HEK293T, cells were used when at 70–80% confluent. Cells were starved of serum for 4 h and subsequently treated with 100 ng/mL NGF or 500 nM of compound ENT-A013 for 30′. Cells were then lysed in Pierce™ IP Lysis Buffer (87788, Thermo Fischer Scientific, Waltham, MA, USA) containing proteases (539138, Calbiochem, Darmstadt, Germany) and phosphatase inhibitors (524629, Calbiochem, Darmstadt, Germany). Lysates were then immunoprecipitated overnight at 4 °C with TrkA antibody (1:100, 06-574, Sigma-Aldrich, St. Louis, MO, USA) (Table S1) or p75^NTR antibody (1:100, ab6172, Abcam plc., Cambridge, UK) followed by 4 h incubation with protein G-plus agarose beads (sc-2002, Santa Cruz Biotechnology, Inc., Dallas, TX, USA). Beads were then collected, washed 3X with lysis buffer, resuspended in SDS loading buffer and subjected to Western blot against phosphorylated Tyrosine (1:1000, BAM1676, R&D Systems, Inc., Minneapolis, MN, USA) or Traf6 antibody (1:2000, ab33915, Abcam, plc., Cambridge, UK). […]
phosphorylated any of those. […] Quantification (E) […]
Supplementary Figure S3: Primary DRG neurons were cultured in the presence of ENT-A013 (500nM, supplemented every 48hrs) and a neutralizing antibody against NGF for 5 days and then neurite length was measured by immunostaining against Tuj1 . […]

phosphorylated JNK = test: JNK phosphorylation in primary hippocampal neurons treated with oligomeric Aβ (Western blot); type: cell-based, mouse; details: 500 nM every 24 h, 48 h
Experimental: treated with ENT-A013 (500nM) or Neurotrophin-3 (100ng/ml) for 30’ and then subjected to Western Blot against phosphorylated TrkC, Akt and Erk1/2. […]
phosphorylated any of those. (D) CellTox assay was performed in NIH-3T3-TrkB cells that were starved from serum and treated with ENT-A013 or BDNF for 24hrs. Quantification (E) […]
negative control (Serum Free).
Supplementary Figure S3: Primary DRG neurons were cultured in the presence of ENT-A013 (500nM, supplemented every 48hrs) and a neutralizing antibody against NGF for 5 days and then neurite length was measured by immunostaining against Tuj1 .
Supplementary Figure S4: Primary hippocampal neurons at 14-16 DIV were treated with oligomeric Aβ and in the presence of ENT-A013 (500nM, supplemented every 24hrs) for 48hrs and then were subjected to Western Blot against phosphorylated JNK. A representative blot […]

[2] = Metabolic stability in human liver microsomes; type: in vitro ADME; details: 1 μM, 0.5 mg/mL microsomes, 1 mM NADPH, t = 60 min
Experimental: Human liver microsome (pooled) concentration was set at 0.5 mg/mL and 1 mM NADPH served as a cofactor for oxidative (CYP-mediated) metabolic stability profiling. ENT-A013 was tested at 1 μM. Incubation conditions ensured linear metabolite formation with respect to reaction time and protein concentration. Incubations took place in triplicates at 37 °C in the presence of negative and positive controls (low vs. rapid clearance). Each reaction was terminated after the specified incubation period (60 min) and plates were read on Lionheart FX (BioTek, Winooski, VT, USA). Residual (%) of time zero (ENT-A013 depletion) was determined.

T1 sequence (Q16288 32-839, species assumed): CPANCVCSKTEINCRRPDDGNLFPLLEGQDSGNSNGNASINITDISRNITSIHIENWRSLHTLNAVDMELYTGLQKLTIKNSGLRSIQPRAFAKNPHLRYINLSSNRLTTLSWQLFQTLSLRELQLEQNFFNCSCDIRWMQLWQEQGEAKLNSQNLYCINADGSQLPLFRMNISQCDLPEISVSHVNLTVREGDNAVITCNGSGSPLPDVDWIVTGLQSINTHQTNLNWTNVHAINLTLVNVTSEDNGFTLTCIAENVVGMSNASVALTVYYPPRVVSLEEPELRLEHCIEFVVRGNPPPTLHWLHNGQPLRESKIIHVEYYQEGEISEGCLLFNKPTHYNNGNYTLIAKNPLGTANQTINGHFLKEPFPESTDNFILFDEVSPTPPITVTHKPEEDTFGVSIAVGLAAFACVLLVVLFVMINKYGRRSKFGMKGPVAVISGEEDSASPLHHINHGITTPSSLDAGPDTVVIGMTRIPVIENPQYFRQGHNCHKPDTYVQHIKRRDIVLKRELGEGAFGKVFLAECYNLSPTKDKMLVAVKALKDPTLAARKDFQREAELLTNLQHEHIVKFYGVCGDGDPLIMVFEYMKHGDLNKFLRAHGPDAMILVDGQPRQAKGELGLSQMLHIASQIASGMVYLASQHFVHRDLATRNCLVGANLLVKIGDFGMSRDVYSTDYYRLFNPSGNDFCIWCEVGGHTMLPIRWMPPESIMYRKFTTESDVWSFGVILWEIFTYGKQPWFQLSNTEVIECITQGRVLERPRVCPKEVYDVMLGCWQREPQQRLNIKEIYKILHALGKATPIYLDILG

## CC12CCC(O)CC1=CCC1C2CCC2(C)C1CCC21CC1C=CBr [ENT-A013, (2′R,3S,17S)-2′-(2-Bromovinyl)-5-Androstene-17,1′-Cyclopropan-3-ol]
[1]
  apoptosis (TUNEL): 29.8% ± 2.5%
TrkC
  TrkC phosphorylation (in words): did not induce phosphorylation
Phosphorylated JNK
  phosphorylated JNK levels (in words): reduced phosphorylated JNK levels similar to untreated control cells
[2]
  residual of time zero: 93%
